Source: ChEMBL document CHEMBL1150924, “Triterpenes and saponins from Rudgea viburnioides” (J Nat Prod, 1998)
Active and inactive are the calls of the source. The calls are words filed in the database; no cut-off is given here.

Tests used:
Type in all cases: functional, organism-based
[1] = test system: Cladosporium cladosporioides; test: Antifungal activity against Cladosporium cladosporioides at 50 ug by TLC bioassay
[2] = test system: Cladosporium cladosporioides; test: Antifungal activity against Cladosporium cladosporioides at 5 ug by TLC bioassay
[3] = test system: Cladosporium cladosporioides; test: Antifungal activity against Cladosporium cladosporioides at 1 ug by TLC bioassay

In the case of `C[C@@H]1CC[C@]2(C)CC[C@]3(C)C(=CC[C@@H]4[C@@]5(C)C[C@@H](O)[C@H](O)C(CO)(CO)[C@@H]5CC[C@]43C)[C@@H]2[C@]1(C)O`, the Activity [1] is reported as “Active”.

In the case of NYSTATIN, the Activity [2] is reported as “Active”.

With `Clc1ccc(COC(Cn2ccnc2)c2ccc(Cl)cc2Cl)c(Cl)c1` (stereo not drawn) the Activity [3] was “Active”.
